What was measured:
[1] = tested on: Fusarium oxysporum f. sp. lycopersici (isolate FP-7) spores; test: Fusarium tetrazolium (MTT) spore viability assay; type: cell-based; conditions: for concentration giving elimination of viable cells: 24 hr exposure, absorbance at 570 nm; for cell viability result compared with Benlate control: tetrazolium cell viability test
Experimental: (§1) The suspension was then standardized using a Beckman spectrophotometer (430 nm), which has been calibrated using a CDB blank. […] Suspensions were incubated for 24 hr at 28° C. A 10% stock solution of MTT was then added to each aliquot. The suspensions were allowed to incubate for 4 hr, then pelleted, drained, rinsed, and treated with 95% ethanol. The color change, which correlates with spore viability, was assessed using the Beckman spectrophotometer (570 nm), calibrated with 95% ethanol. Benlate (benomyl) was used as an industry standard control. Each treatment was replicated six times and the assay for each compound was repeated. […] A mycelial plug of (cork bore size #3) Fusarium oxysporum f. sp. lycopersici (isolate FP-7) from a 7-day old culture was placed at the center of the plate and the radial growth of the fungus was measured for 7-10 days. Each treatment was replicated six times and the assay for each compound was repeated. Regression analysis was performed using Sigma Plot 2000.
(§2) The tetrazolium assay is based on a color change produced with a vital stain on living tissue, i.e. the lower the absorbance, the fewer viable cells.

[2] = tested on: Fusarium oxysporum f. sp. lycopersici (isolate FP-7); test: Fusarium petri plate (PDA) assay, radial growth; type: cell-based; conditions: for fungal growth elimination compared with Benlate control: PDA-based assay
Experimental: as §1, §2

[3] = tested on: purple nutsedge (Cyperus rotundus) tubers; test: Nutsedge greenhouse assay, soil drench on tubers in pots; type: in vivo; conditions: 100 ml soil drench, tarped 7 days, shoots counted 60 days
Experimental: Herbicide Screen: Each candidate compound was tested on seeds of smooth pigweed (Amaranthus hybridus) and barnyard grass (Echinocloa crus-galli), and on tubers of purple nutsedge (Cyperus rotundus) by exposing seeds or tubers to a specific concentration of the test compound. Seeds were surface sterilized and 20 seeds placed on sterile filter paper (Whatman #5) in a 10-cm petri plate for each of six replicates for each weed species tested. Twenty ml of compound of concentrations ranging from 0 ppm (sterile water control) to 2000 ppm was added to the petri dishes. Plates were stored at 30° C. in an dark incubator. Seed germination was monitored at 24 hr intervals for 30 days. Petri plate bioassays were repeated twice for each compound. Field collected purple nutsedge tubers were placed in 500 g of field soil with soil moisture adjusted to 5%. Five nutsedge tubers were planted in each 10-cm pot at a depth of 2.5 cm. Six replicate pots of each concentration, ranging from 0 ppm (water control) to 2000 ppm, will be treated using 100 ml as a soil drench. Pots were tarped with co-extruded black-on-white polyethylene mulch for 7 days. After tarps were removed, the number of emerged nutsedge shoots was recorded on a weekly basis for 60 days.

[4] = tested on: nutsedge (Cyperus esculentus and C. rotundus); test: Field study, weed biomass emerging through the plastic mulch; type: in vivo; conditions: pre-plant, tomato field, Florida
[5] = tested on: native weed population (weeds in the plant hole); test: Field study, weed biomass emerging in the planting hole; type: in vivo; conditions: pre-plant, tomato field, Florida
[6] = tested on: root knot nematode Meloidogyne sp.; test: Field study, root knot nematode root galling on tomato; type: in vivo; conditions: 600 and 800 lb per acre, assessed at harvest; population unevenly distributed

SMILES | concentration giving elimination of viable cells [1] | fungal growth elimination compared with Benlate control [2] | cell viability result compared with Benlate control [1] | other results
CCCCNC(=O)n1c(NC(=O)OC)nc2ccccc21 [Benlate, benomyl, reference compound] | 100 ppm | – | – | –
NC(=O)CBr [bromoacetamide, 2-bromoacetamide] | 100 ppm | significantly better than the Benlate control | comparable to a Benlate control | concentration eliminating germination of nutsedge [3]: ≥ 1000 ppm
O=C(O)CBr [bromoacetic acid] | – | significantly better than the Benlate control | – | control of nutsedge emerging through the plastic versus methyl bromide ([4]; 600 lb per acre): as effective as methyl bromide; control of nutsedge emerging through the plastic (fresh and dry weight) versus methyl bromide ([4]; 800 lb per acre): as effective as methyl bromide; control of weeds in the plant hole versus methyl bromide ([5]; 600 lb per acre): not as effective; control of weeds emerging in the plant hole (fresh and dry weight) versus methyl bromide ([5]; 800 lb per acre): as effective as methyl bromide; root knot nematode control (root galling, scale 0-10) versus untreated check [6]: not statistically significantly different from the untreated check
NC(=O)CI [iodoacetamide, 2-iodoacetamide] | 100 ppm | significantly better than the Benlate control | comparable to a Benlate control | –
O=C(O)CI [iodoacetic acid] | – | comparable to the Benalte control | – | concentration at which fungal growth was eliminated ([2]; compound in potato dextrose agar, radial growth measured 7-10 days): ≥ 500 ppm

Source: US20040242697A1, “Methods of reducing pests by use of iodoacetic acid, bromoacetic acid, 2-iodoacetamide, or 2-bromoacetamide” (priority 2003, published 2004)
